No end group written: not given here.
Tests used:
A. tumefaciens = conditions: 24 h, 10 μM
L. crescens = conditions: 10 μM
E. coli = test: Bacterial growth inhibition by OD600 absorbance, E. coli; format: cell-based, E. coli (DH5-alpha); conditions: peptide 10 μM, 24 hours at 37° C., OD 600 nm
Summary of the method: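 Percent inhibition was calculated from initial and 24 h OD600 readings against DMSO (0.1%) and antibiotic controls. Cultures received 10 μM peptide and were incubated at 30° C. (X. citri) or 37° C. (E. coli).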

X. citri = test: Bacterial growth inhibition by OD600 absorbance, X. citri; format: cell-based, X. citri subsp. citri (ATCC 49118); conditions: peptide 10 μM, 24 hours at 30° C., OD 600 nm
E. amylovora = conditions: 24 h, 10 μM

Sequence | growth inhibition, A. tumefaciens (A. tumefaciens) [%] | growth inhibition, L. crescens (L. crescens) [%] | growth inhibition, E. coli (E. coli) [%] | growth inhibition, X. citri (X. citri) [%] | growth inhibition, E. amylovora (E. amylovora) [%]
GIKIAKKAITIAKKIAKIYW [compound 69] | 100.00 | <90 | 93.16 | 100.00 | 100.00
GIKKFLKSAKKFVKAFK [compound 86] | 98.88 | <90 | <90 | <90 | 100.00
GILKTIKSIASKLKRKAK [compound 85] | <90 | <90 | <90 | <90 | 99.65
GILKTIKSIASKVANTVQKLKRKAKNAVA [compound 20] | 100.00 | <90 | 99.03 | 100.00 | 100.00
GILSKLGKALKKAAKHAAKA [compound 82] | <90 | <90 | <90 | <90 | 100.00
GIMSSLMKKLKKIIAK [compound 99] | 98.76 | <90 | <90 | <90 | 100.00
GKLTKDKLKRGAKKALNVASKVAPIVAAGASIAR [compound 10] | 98.37 | <90 | <90 | 100.00 | 100.00
GLLKKIAKKAKKALKKLGY [compound 74] | 100.00 | <90 | <90 | 100.00 | 100.00
GLLKKWLKKWKEFKRIVGY [compound 57] | 99.99 | <90 | 100.00 | 100.00 | 100.00
GLLSNVAGLLKQFAKGGVNAVLNPK [compound 45] | <90 | <90 | <90 | 100.00 | 99.64
GLWSKIKKAAKTAGKAALGFVNKMV [compound 35] | 100.00 | <90 | 100.00 | 100.00 | 100.00
GLWSKIKTAGKSVAKAAAKAAVKAVTNAV [compound 28] | 100.00 | <90 | 100.00 | 100.00 | 100.00
GMWKKILGKLIR [compound 134] | 100.00 | <90 | <90 | <90 | 100.00
GMWSKLLGHLLR [compound 138] | 100.00 | <90 | <90 | <90 | 100.00
GWKDWAKKAGGWLKKKGPGMAKAALKAAMQ [compound 2] | 100.00 | <90 | <90 | 100.00 | 100.00
GWKKWLRKGAKHLGQAAIKGLAS [compound 46] | 100.00 | <90 | 100.00 | 100.00 | 100.00
GWWRRTVDKVRNAGRKVAGFASKACGALGH [compound 13] | 100.00 | 100.00 | 100.00 | 100.00 | 100.00
GYNYAKKLANLAKKFANALW [compound 66] | 99.99 | <90 | <90 | 100.00 | 97.23
IKKILSKIKKLLK [compound 122] | 97.95 | <90 | <90 | 100.00 | 93.74
INWKKIASIGKEVLKAL [compound 94] | 100.00 | <90 | <90 | <90 | 100.00
IRIRIRPIRIRIRP [compound 98] | 99.18 | <90 | 99.61 | <90 | 99.58
IWSFLIKAATKLLPSLFGGGKKDS [compound 39] | <90 | 92.47 | 100.00 | 100.00 | <90
KFFKRLLKSVRRAVKKFRKKPRLIGLSTLL [compound 8] | 99.88 | <90 | 100.00 | 100.00 | 100.00
KFLKKAKKFGKAFVKIL [compound 83] | 99.31 | <90 | <90 | <90 | 100.00
KFWSLLKKALRLWANVL [compound 76] | 100.00 | 99.76 | 100.00 | 100.00 | 100.00
KILKRLAAKIKKIL [compound 113] | <90 | <90 | <90 | 100.00 | <90
KKFLHSAKKWLKAFVKLFKNW [compound 33] | 100.00 | 96.12 | 100.00 | 100.00 | <90
KKIGKKAAKKVIVKAIQAIV [compound 73] | <90 | <90 | <90 | <90 | 99.94
KKLIKVFAKGFKKAKKLFKGIG [compound 52] | 100.00 | <90 | <90 | 100.00 | 100.00
KLLKKAGKLLKKAGKLLKKAG [compound 71] | 100.00 | <90 | <90 | 100.00 | 100.00
